Reference: BindingDB's records for doi:10.1021/np000120k (The University of Tokyo, 2000)
Values after ≈ are worked out from the molar mass of the structure shown. Starred links: 1 amine or outer side, 2 acyl side, 3 side chain; linkers in the order of their positions; H or OH if unused. Positions of bridges follow the written chain, without caps; N, C: chain ends. Non-standard residues stand in square brackets, D forms with d. Residues, ends and D or L forms follow the SMILES beside them. NMehTyr = CN[C@@H](CCc1ccc(O)cc1)C(=O)O; hTyr = N[C@@H](CCc1ccc(O)cc1)C(=O)O; CO = O=C([*:1])[*:2]

Target: T1, Carboxypeptidase A1 (Homo sapiens, UniProt P15085)
T1 sequence (P15085 whole entry): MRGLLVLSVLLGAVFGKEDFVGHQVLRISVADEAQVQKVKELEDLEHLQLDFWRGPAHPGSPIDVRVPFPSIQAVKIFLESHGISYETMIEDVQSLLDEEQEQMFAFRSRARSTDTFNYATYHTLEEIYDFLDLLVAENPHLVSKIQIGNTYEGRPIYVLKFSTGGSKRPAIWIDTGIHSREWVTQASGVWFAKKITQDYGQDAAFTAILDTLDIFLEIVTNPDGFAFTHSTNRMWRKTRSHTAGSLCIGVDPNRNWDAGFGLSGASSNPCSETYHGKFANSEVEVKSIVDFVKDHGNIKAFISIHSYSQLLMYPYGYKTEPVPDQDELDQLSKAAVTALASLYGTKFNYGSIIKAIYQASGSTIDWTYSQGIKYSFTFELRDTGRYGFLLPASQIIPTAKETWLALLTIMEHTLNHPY
Assay: Inhibition of carboxypeptidase A

IC50: 7 ng/mL (≈ 7.53 nM)
Structure (SMILES): CC[C@H](C)[C@@H]1NC(=O)[C@H](NC(=O)N[C@@H](Cc2ccc(O)cc2)C(=O)O)CCCCNC(=O)[C@H]([C@@H](C)CC)NC(=O)[C@H](CCc2ccc(O)cc2)N(C)C(=O)[C@H](CCc2ccc(O)cc2)NC1=O [Anabaenopeptin G] ({Tyr-CO}-[dK]I[hTyr][NMehTyr]I; lactam 1-C)
